Data from US20210283117A1, “PROPHYLACTIC OR THERAPEUTIC AGENT FOR PROSTATE CANCER” (KEIO UNIVERSITY, priority 2018, published 2021).

Key:
DU145CR cell lines [1] = assay: Antitumor effect on cabazitaxel-resistant CRPC mice, tumor volume; assay type: in vivo
Description: The 1×10^6 DU145CR cell lines established in Example 5 were subcutaneously inoculated to castrated male nude mice (BALB/C) to prepare subcutaneous tumor model mice (cabazitaxel-resistant CRPC mice). When the tumor size reached about 100 mm^3, the subcutaneous tumor model mice were divided into three groups (control group, cabazitaxel administration group and cloperastine administration group). To the cloperastine administration group (n=5), a cloperastine hydrochloride (manufactured by Sigma-Aldrich Co. LLC) was orally administered daily at a dose of 12.5 mg/kg (body weight) per day in terms of cloperastine (“cloperastine administration group” in FIG. 7B). To the cabazitaxel administration group (n=5), cabazitaxel (manufactured by Carbosynth Limited) was intraperitoneally administered in a single dose of 10 mg/kg (body weight) (“cabazitaxel administration group” in FIG. 7B). On the other hand, any of the cloperastine hydrochloride and cabazitaxel was not administered to the control group (n=5) (“control group” in FIG. 7B). For the CRPC model mice and the cabazitaxel-resistant CRPC mice, tumor volumes were measured and an average value was calculated immediately after oral administration of the cloperastine hydrochloride (day 0) and 4 days, 8 days, 12 days and 16 days after the oral administration.

PC3 cell lines [2] = assay: Cell growth suppressive effect, number of living cells (Premix WST-1), Example 2; assay type: cell-based; details: cloperastine 0.1, 1, 10 μM, 24 hours, vs culture without cloperastine
Description: (§1) For confirming that the cloperastine species has a cell growth suppressive effect on metastatic CRPC, metastatic CRPC cell lines (DU145 cell lines and PC3 cell lines) were cultured in the presence of the cloperastine species, and the cell growth property was analyzed.
(§2) DU145 cell lines and PC3 cell lines (these cell lines were obtained from ATCC [American Type Culture Collection]) were cultured on a 96-well plate for 24 hours. […] As a control, an experiment was also conducted in which DU145 cell lines and PC3 cell lines were cultured in a culture solution free of a cloperastine hydrochloride.

DU145 cell lines [3] = assay: as above; assay type: cell-based; details: cloperastine 0.1, 1, 10 μM, 24 hours, vs culture without cloperastine
Description: as §1, §2

PC3 cell lines [4] = assay: EMT-related gene mRNA expression, quantitative PCR; assay type: cell-based; details: 10 μM cloperastine, 24 hours, vs control group
Description: (§3) For confirming that the cloperastine species has a suppressive effect on EMT in metastatic CRPC cells, metastatic CRPC cell lines (DU145 cell lines and PC3 cell lines) were cultured in the presence of the cloperastine species, and the gene expression profiles of EMT-related factors were analyzed.
(§4) DU145 cell lines and PC3 cell lines were cultured for 24 hours in the presence of 10 μM cloperastine or without cloperastine (cloperastine treatment group and control group, respectively), and mRNA was then extracted with “RNeasy Mini kit” (manufactured by QIAGEN Company). From the extracted mRNA, cDNA was synthesized with “PrimeScript RT reagent Kit” (manufactured by Takara Bio Inc.). For analyzing the mRNA expression levels of genes encoding six kinds of factors (E-cadherin, vimentin, “Zinc finger protein SNAI1”, “Zinc finger protein SNAI2”, “Zinc finger E-box-binding homeobox 1” and “Zinc finger E-box-binding homeobox 2”) (CDH1 gene, VIM gene, SNAI1 gene, SNAI2 gene, ZEB1 gene and ZEB2 gene, respectively), quantitative PCR analysis was performed with the primer and TaqMan probe sets (TaqMan Gene Expression Assays) (manufactured by Applied Biosystems Company) shown in Table 1 below, and CFX96 Real-Time System (manufactured by Bio-Rad Laboratories, Inc).

DU145 cell lines [5] = assay: EMT-related gene mRNA expression, quantitative PCR; assay type: cell-based; details: 10 μM cloperastine, 24 hours, vs control group
Description: as §3, §4

DU145CR cell lines [6] = assay: TUNEL method (apoptosis); assay type: cell-based; details: 10 μM, 24 hours, vs culture without cloperastine
Description: (§5) For confirming that the cloperastine species has a cell growth suppressive effect and an apoptosis inducing effect on CRPC and cabazitaxel-resistant CRPC, metastatic CRPC cell lines (DU145 cell lines and PC3 cell lines) were cultured in the presence of the cloperastine species, and analysis was performed by an immunohistological staining method using an antibody to a cell growth marker (Ki67), and a TUNEL (TdT-mediateddUTPnickendlabeling) method.
(§6) DU145 cell lines and DU145CR cell lines were cultured on 96-well plates, respectively, for 24 hours, and to a culture solution, a cloperastine hydrochloride (manufactured by Sigma-Aldrich Co. LLC) was added to 10 μM. The cell lines were further cultured for 24 hours, and the cells were then fixed with 4% paraformaldehyde. The fixed cells were subjected to blocking treatment with a 1% BSA (bovine serum albumin) solution, and primary antibody reaction treatment with a Ki67 antibody (manufactured by Dako Company) was performed overnight at 4° C. […] The immunohistological-stained cell sample was observed under a phase-contrast microscope (see FIG. 8A), and the ratio of Ki67-positive cells was calculated. […] The cell sample stained by the TUNEL method was observed under a phase-contrast microscope (see FIG. 9A), and the ratio of TUNEL-positive cells (cells undergoing apoptosis) was calculated.

DU145 cell lines [7] = assay: TUNEL method (apoptosis); assay type: cell-based; details: 10 μM, 24 hours, vs culture without cloperastine
Description: as §5, §6

normal cells = assay: Impact on growth of normal cells; assay type: cell-based; details: 1 μM
DU145 cell lines [8] = assay: Invasion assay, xCELLigence, Matrigel basement membrane matrix; assay type: cell-based; details: 1 μM cloperastine hydrochloride, 0 to 48 hours, vs control group
Description: For confirming the anti-prostate cancer effect of the cloperastine species, DU145 cell lines were cultured in the presence of the cloperastine species, and the invasiveness of the cell lines was analyzed (invasion assay).
To a culture solution added to each well of Real-Time Cell Analyzer xCELLigence (manufactured by ACEA Biosciences Inc.), a cloperastine hydrochloride (manufactured by Sigma-Aldrich Co. LLC) was added to 1 μM, and 4.0×10^4 DU145 cell lines were added. The cell lines were then cultured, and the number of cells passing through a Matrigel basement membrane matrix (manufactured by Corning Incorporated) was measured over time (0 to 48 hours) (cloperastine treatment group). As a control for comparison, DU145 cell lines were cultured in a culture solution free of a cloperastine hydrochloride, and the same experiment was conducted (control group).

C4-2AT6 cell lines = assay: Cell growth suppressive effect on enzalutamide-resistant prostate cancer cell lines (WST-1), Example 7; assay type: cell-based; details: cloperastine 0.1, 1, 10 μM, vs culture without cloperastine
Description: as §2
(§7) For confirming that the cloperastine species has a cell growth suppressive effect on enzalutamide-resistant prostate cancer and cabazitaxel-resistant prostate cancer, enzalutamide-resistant prostate cancer cell lines (C4-2AT6 cell lines) and cabazitaxel-resistant prostate cancer cell lines (DU145CR cell lines) were used to analyze the cell growth property in the presence of cloperastine species in accordance with the method described in Example 2.

DU145CR cell lines [9] = assay: Ki67 immunohistological staining; assay type: cell-based; details: 10 μM, 24 hours, vs culture without cloperastine
Description: as §5, §6

DU145 cell lines [10] = assay: Ki67 immunohistological staining; assay type: cell-based; details: 10 μM, 24 hours, vs culture without cloperastine
Description: as §5, §6

DU145CR cell lines [11] = assay: Cell growth suppressive effect on cabazitaxel-resistant prostate cancer cell lines (WST-1), Example 7; assay type: cell-based; details: cloperastine 0.1, 1, 10 μM, vs culture without cloperastine
Description: as §2, §7

DU145 cell lines [12] = assay: Antitumor effect on CRPC model mice, tumor volume; assay type: in vivo
Description: 1×10^6 metastatic CRPC cell lines (DU145 cell lines) were subcutaneously inoculated to castrated male nude mice (BALB/C) to prepare subcutaneous tumor model mice. When the tumor size reached about 100 mm^3, the subcutaneous tumor model mice (CRPC model mice) were divided into three groups (control group, cabazitaxel administration group and cloperastine administration group). To the cloperastine administration group (n=5), a cloperastine hydrochloride (manufactured by Sigma-Aldrich Co. LLC) was orally administered daily at a dose of 12.5 mg/kg (body weight) per day in terms of cloperastine (“cloperastine administration group” in FIG. 7A). To the cabazitaxel administration group (n=5), cabazitaxel (manufactured by Carbosynth Limited) was intraperitoneally administered in a single dose of 10 mg/kg (body weight) (“cabazitaxel administration group” in FIG. 7A). On the other hand, any of the cloperastine hydrochloride and cabazitaxel was not administered to the control group (n=5) (control group in FIG. 7A).
The 1×10^6 DU145CR cell lines established in Example 5 were subcutaneously inoculated to castrated male nude mice (BALB/C) to prepare subcutaneous tumor model mice (cabazitaxel-resistant CRPC mice). When the tumor size reached about 100 mm^3, the subcutaneous tumor model mice were divided into three groups (control group, cabazitaxel administration group and cloperastine administration group). To the cloperastine administration group (n=5), a cloperastine hydrochloride (manufactured by Sigma-Aldrich Co. LLC) was orally administered daily at a dose of 12.5 mg/kg (body weight) per day in terms of cloperastine (“cloperastine administration group” in FIG. 7B). […] For the CRPC model mice and the cabazitaxel-resistant CRPC mice, tumor volumes were measured and an average value was calculated immediately after oral administration of the cloperastine hydrochloride (day 0) and 4 days, 8 days, 12 days and 16 days after the oral administration.

DU145CR cell lines [13] = assay: Antitumor effect by use in combination with cabazitaxel, cabazitaxel-resistant CRPC mice, tumor volume; assay type: in vivo
Description: The 5×10^6 DU145CR cell lines established in Example 5 were subcutaneously inoculated to castrated male nude mice (BALB/C) to prepare subcutaneous tumor model mice (cabazitaxel-resistant CRPC mice). When the tumor size reached about 100 mm^3, the subcutaneous tumor model mice were divided into four groups (control group, cabazitaxel administration group, cloperastine administration group and cloperastine+cabazitaxel administration group). To the cabazitaxel administration group (n=5), cabazitaxel (manufactured by Carbosynth Limited) was intraperitoneally administered in a single dose of 10 mg/kg (body weight). To the cloperastine administration group (n=5), a cloperastine hydrochloride (manufactured by Sigma-Aldrich Co. LLC) was orally administered daily at a dose of 12.5 mg/kg (body weight) per day in terms of cloperastine. To the cloperastine+cabazitaxel administration group (n=5), the cloperastine hydrochloride was orally administered daily at a dose of 12.5 mg/kg (body weight) per day in terms of cloperastine, and cabazitaxel (manufactured by Carbosynth Limited) was intraperitoneally administered in a single dose of 10 mg/kg (body weight). […] For the cabazitaxel-resistant CRPC mice, tumor volumes were measured and an average value was calculated immediately after oral administration (day 0) and 4 days, 8 days and 12 days after the oral administration.

DU145CR cell lines [14] = assay: In vitro analysis of cabazitaxel resistance, number of living cells (WST-1); assay type: cell-based; details: 24 hours
Description: DU145CR cell lines were established by culturing DU145 cell lines in the presence of 0.2 nM cabazitaxel (manufactured by Carbosynth Limited) for about 2 years while gradually increasing the cabazitaxel concentration to 3 nM.

DU145 cell lines [15] = assay: as above; assay type: cell-based; details: Homo sapiens, DU-145, 24 hours
DU145CR cell lines [16] = assay: In vivo analysis of cabazitaxel resistance, subcutaneous tumor model mice (DU145CR vs DU145); details: cabazitaxel 10 mg/kg single intraperitoneal dose; 12 days after administration
Description: The 1×10^6 established DU145CR cell lines and 1×10^6 DU145 cell lines were subcutaneously inoculated to castrated male nude mice (BALB/C), respectively, to prepare subcutaneous tumor model mice (DU145CR mice and DU145 mice). When the tumor size reached about 200 mm^3, the subcutaneous tumor model mice were divided into four groups (DU145 mouse group, cabazitaxel administration DU145 mouse group, DU145CR mouse group and cabazitaxel administration DU145CR mouse group), and to the cabazitaxel administration DU145 mouse group and the cabazitaxel administration DU145CR mouse group (n=5 for each group), cabazitaxel (manufactured by Carbosynth Limited) was intraperitoneally administered in a single dose of 10 mg/kg (body weight). Cabazitaxel was not administered to the DU145 mouse group and the DU145CR mouse group (n=5 for each group). Immediately after oral administration (day 0) and 4 days, 8 days and 12 days after the oral administration, tumor volumes were measured and an average value was calculated.

Clc1ccc([C@H](OCCN2CCCCC2)c2ccccc2)cc1 (racemic) [cloperastine, 1-{2-[(RS)-(4-chlorophenyl) (phenyl)methoxy]ethyl}piperidine]
tumor volume (DU145CR cell lines [1]; 12.5 mg/kg per day oral, daily): considerably reduced the tumor volume | number of living cells (PC3 cell lines [2]): significantly smaller number of living cells in a concentration-dependent manner | number of living cells (DU145 cell lines [3]): significantly smaller number of living cells in a concentration-dependent manner | expression level of mRNA encoding E-cadherin (PC3 cell lines [4]; PC3 (FIG. 2B)): higher | expression levels of mRNA encoding vimentin, SNAI1, SNAI2, ZEB1, ZEB2 (PC3 cell lines [4]; PC3): all lower | expression levels of mRNA encoding vimentin, SNAI1, SNAI2, ZEB1, ZEB2 (DU145 cell lines [5]): all lower | ratio of TUNEL-positive cells (DU145CR cell lines [6]): higher ratio of TUNEL-positive cells | ratio of TUNEL-positive cells (DU145 cell lines [7]): higher ratio of TUNEL-positive cells | impact on growth of normal cells (normal cells): no impact on growth of normal cells | invasion of cells (DU145 cell lines [8]): significantly suppressed | number of living cells (C4-2AT6 cell lines): significantly smaller number of living cells in a concentration-dependent manner | ratio of Ki67-positive cells (DU145CR cell lines [9]): lower ratio of Ki67-positive cells | ratio of Ki67-positive cells (DU145 cell lines [10]): lower ratio of Ki67-positive cells | number of living cells (DU145CR cell lines [11]): significantly smaller number of living cells in a concentration-dependent manner | tumor volume vs control group (DU145 cell lines [12]; 12.5 mg/kg per day oral, daily): smaller than the tumor volume in the control group | tumor volume decrease level vs cabazitaxel administration group (DU145 cell lines [12]; cloperastine 12.5 mg/kg per day oral vs cabazitaxel 10 mg/kg single i.p.): higher than the tumor volume decrease level in the cabazitaxel administration group | tumor volume vs control group (DU145CR cell lines [13]; cloperastine 12.5 mg/kg per day oral, day 12, p<0.001): statistically significant difference between the cloperastine administration group and the control group

CO[C@H]1C(=O)[C@]2(C)[C@@H](OC)C[C@H]3OC[C@@]3(OC(C)=O)[C@H]2[C@H](OC(=O)c2ccccc2)[C@]2(O)C[C@H](OC(=O)[C@H](O)[C@@H](NC(=O)OC(C)(C)C)c3ccccc3)C(C)=C1C2(C)C [cabazitaxel]
tumor volume (DU145CR cell lines [1]; cabazitaxel 10 mg/kg single intraperitoneal dose): hardly enabled suppression of an increase in tumor volume | IC50 (DU145CR cell lines [14]): 11 nM | IC50 (DU145 cell lines [15]): 3.8 nM | tumor volume, cabazitaxel administration DU145CR mouse group vs cabazitaxel administration DU145 mouse group (DU145CR cell lines [16]): about twice | tumor volume vs control group (DU145 cell lines [12]; cabazitaxel 10 mg/kg single intraperitoneal dose, day 16, p<0.01): statistically significant difference between the cabazitaxel administration group and the control group | tumor volume vs control group (DU145CR cell lines [13]; cabazitaxel 10 mg/kg single i.p., day 12, p>0.05): no statistically significant difference
